Assay results published in publication PMC12314052 (Nature Communications, 2025).
Where a chain is given by its changes, count along the chain named. pKd: −log10 of the molar value.

Tests used:
[1] = system: Gαq-coupled mAChRs (M1, M3, M5); settings: M1, M3, M5 mAChRs ref 27; cited from earlier work
ACh-bound M5 mAChR = biological target: T1, ACh-bound M5 mAChR (Homo sapiens, UniProt P08912); assay: Binding affinity for the ACh-bound receptor (chemical probe statement); settings: determined in this study and others
T1 sequence (P08912 1-532): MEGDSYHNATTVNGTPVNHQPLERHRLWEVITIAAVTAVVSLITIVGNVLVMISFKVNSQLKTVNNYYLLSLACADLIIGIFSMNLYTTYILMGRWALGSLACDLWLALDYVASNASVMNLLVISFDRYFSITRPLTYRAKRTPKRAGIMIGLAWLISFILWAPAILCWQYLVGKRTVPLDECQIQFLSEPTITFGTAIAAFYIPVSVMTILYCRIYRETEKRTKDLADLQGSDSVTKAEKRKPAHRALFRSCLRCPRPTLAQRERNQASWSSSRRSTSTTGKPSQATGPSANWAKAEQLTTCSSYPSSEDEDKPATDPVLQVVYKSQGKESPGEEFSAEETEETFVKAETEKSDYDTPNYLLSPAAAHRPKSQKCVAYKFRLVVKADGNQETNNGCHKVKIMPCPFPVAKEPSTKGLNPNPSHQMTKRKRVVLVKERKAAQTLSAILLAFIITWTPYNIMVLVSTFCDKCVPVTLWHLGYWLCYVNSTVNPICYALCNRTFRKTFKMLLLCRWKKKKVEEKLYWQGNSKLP

[2] = cited from earlier work
hM5 mAChR [3] = biological target: T2, hM5 mAChR (Homo sapiens, UniProt P08912, A113V/G152A/L156V); assay: Inositol monophosphate (IP1) accumulation assay, ML380-ACh interaction; type: cell-based; settings: M5 EH4 pocket mutant (A113V, G152A, L156V), CHO cells
T2 construct: expressed in transfected cells
T2 sequence (P08912 1-532 A113V/G152A/L156V): T1 sequence (P08912 1-532) with A113V, G152A, L156V
Experimental: (§1) FlpIn CHO cells stably expressing either WT or mutant hM5 mAChR were seeded in clear, flat bottom 96-well plates at a density of 10,000−25,000 cells per well (depending on the cell line) one day prior to the assay. The optimal cell density for each line was chosen based on achieving an IP1 response that fell within the linear range of the IP1 standard curve. On the assay day, the medium was replaced with stimulation buffer (Hanks’ balanced salt solution (HBSS) containing 10 mM HEPES, 1.3 mM CaCl2, and 30 mM LiCl, pH 7.4) and allowed to incubate for 60 minutes at 37 °C before ligand stimulation. After this pre-incubation, the buffer was replaced, and cells were exposed to ligands for 60 minutes at 37 °C in a 5% CO2 atmosphere, with a total assay volume of 100 μL. Following the 60-minute stimulation, ligands were removed by rapid removal of buffer. Cells were lysed by freeze-thawing in 30 μL of stimulation buffer. IP1 accumulation was then quantified using the HTRF IP-One assay kit (Cisbio), with fluorescence measured on an EnVision multilabel plate reader (PerkinElmer).
(§2) All data were analysed using GraphPad Prism 10 (GraphPad Software, San Diego, CA). The interaction between orthosteric agonist and allosteric modulator in functional assays was analysed using an operational model of allosterism to determine functional modulation (log αβ) and affinity (pKB) parameters. Radioligand saturation binding experiments with [^3H]-NMS to determine Bmax and pKD values were determined using a one site – specific binding equation in Prism 10^31. For the radioligand binding interaction of orthosteric agonist with various concentrations of allosteric modulator, the data were fit to an allosteric ternary complex model to derive pKB and α binding cooperativity parameters. All affinity, potency, cooperativity, and efficacy parameters were estimated as logarithms. To ensure model convergence in all instances, allosteric parameters were determined from the respective allosteric models, which were globally fitted to all individual datasets for each allosteric modulator at each receptor construct. […]

hM5 mAChR [4] = assay: as above; type: cell-based, human; settings: ECV allosteric site alanine mutants of M5 mAChR, CHO cells
Experimental: as §1, §2

hM5 mAChR [5] = biological target: T3, hM5 mAChR (Homo sapiens, UniProt P08912); assay: as above; type: cell-based; settings: WT M5 mAChR, CHO cells
T3 construct: expressed in transfected cells
T3 sequence (P08912 1-532): T1 sequence (P08912 1-532)
Experimental: as §1, §2

hM5 mAChR [6] = assay: [3H]-NMS equilibrium radioligand binding, interaction of ACh and allosteric modulator; parameters: species or system human
Experimental: FlpIn CHO cells stably expressing WT hM5 mAChR or mutants were plated at 25,000 cells per well in 96-well isoplates (PerkinElmer Life Sciences) and incubated overnight at 37 °C in a 5% CO2 incubator. The following day, the cells were washed with PBS and incubated in 20 mM HEPES, 100 mM NaCl, 10 mM MgCl2, pH 7.4. For saturation binding experiments, the cells were incubated with varying concentrations of the orthosteric antagonist [^3H]-N-methylscopolamine ([^3H]-NMS; specific activity, 70 Ci/mmol, Perkin Elmer) in a final volume of 100 μL for 6 hours at room temperature. […] Radioactivity was measured by adding 100 μL of Optiphase Supermix scintillation fluid (PerkinElmer) and counted using a MicroBeta^2 Plate Counter (PerkinElmer Life Sciences).
All data were analysed using GraphPad Prism 10 (GraphPad Software, San Diego, CA). The interaction between orthosteric agonist and allosteric modulator in functional assays was analysed using an operational model of allosterism to determine functional modulation (log αβ) and affinity (pKB) parameters. Radioligand saturation binding experiments with [^3H]-NMS to determine Bmax and pKD values were determined using a one site – specific binding equation in Prism 10^31. […]

Row | SMILES | Effect on ACh signalling [1] | pKd (ACh-bound M5 mAChR) | CNS penetration [2] | Partition coefficients ([2]; limited in vivo utility ref 25) | Change in ML380 affinity (pKB) compared to WT (hM5 mAChR [3]) | ML380 function at ECV alanine mutants (hM5 mAChR [4]) | Activity of ML380 and cooperativity with ACh (hM5 mAChR [5]) | ML380 cooperativity with ACh versus WT (hM5 mAChR [6]; M5/M2 TM1,7,h8 chimera) | ML380's ability to modulate ACh binding (hM5 mAChR [6]; M5/M2 TM2,3,4 and M5/M2 TM3,4,5 chimeras (swapping TM2-5))
1 | O=C1C(=O)N(Cc2ccc(Br)cc2)c2ccccc21 [VU0119498] | enhanced | – | – | – | – | – | – | – | –
2 | CCN(Cc1ccccc1C(F)(F)F)C(=O)C1CCN(S(=O)(=O)c2ccc3[nH]ncc3c2)CC1 [ML380, 1-((1H-indazol-5-yl)sulfoneyl)-N-ethyl-N-(2-(trifluoromethyl)benzyl)piperidine-4-carboxamide] | – | ~6.24 | penetrate the CNS | poor | no significant change in affinity | retained its ability to bind, activate, and modulate receptor function | both agonism and positive cooperativity with ACh | increased | completely abolished
